Data published in patent publication EP0728012B1, “NOVEL GnRH ANALOGUES WITH ANTITUMOUR EFFECTS AND PHARMACEUTICAL COMPOSITIONS THEREOF” (Lovas, Sandor, priority 1994, dated 1996).
Non-standard residues stand in square brackets, D forms with d. Residues, ends and D or L forms follow the SMILES beside them. dPhe(4-Cl) = N[C@H](Cc1ccc(Cl)cc1)C(=O)O

What was measured:
human tumour cell lines = experiment: Inhibition of colony formation (Example 48), comparison with the control D-Trp^6-hGnRH; type: cell-based; conditions: data of Table VIII
Method: (§1) The examination gives accurate information about the cell-damaging effect of the substance tested as a function of varying doses. The treatment was carried out once; the colonies formed from the surviving cells were counted after 8 - 12 days. […] A part of the arrested cells again entered the cycle, another part of them might be destroyed (apoptosis). […] In the case of a dose-response investigation, colonies containing less than 15 cells were not counted. 300 cells were put into each Petri dishes of 3.5 cm in diameter. The treatment was once carried out 24 hours after setting, then the colonies formed were counted after 8 - 12 days. The cells were treated once after 24 hours with 1-50 µM of various GnRH analogues of Examples above or with 1 - 50 µM of GnRH-III, respectively. The percentages of inhibition obtained on MCF-7, MDA-MB-231, PC3 and Ishikawa cells, respectively, together with the dose of the active agent used are shown in Table VIII.
In these studies the D-Trp^6-hGnRH analogue (Sigma Co.) commonly used in the tumour therapy was employed as control.

MCF-7 [1] = experiment: Inhibition of colony formation by GnRH analogues (dose-survival, Example 48); type: cell-based, human; conditions: 50 µM, treated once
Method: as §1

Ishikawa [2] = experiment: as above; type: cell-based, human; conditions: 50 µM
Method: as §1

[3] = system: MCF-7 human mammary carcinoma cell line; experiment: Inhibition of colony formation (dose-survival relation, Example 18); type: cell-based; conditions: for % Inhibition of colony formation: treated once
Method: (§2) In the case of cytostatics the cell-damaging effect is not cell-specific. […] One part of the arrested cells again go into the cycle, the other part may perish (apoptosis). […] The investigations were carried out on MCF-7 and MDA-MB-231 human mammary carcinoma cell lines, PC3 human prostate 15 carcinoma cell line and Ishikawa human endometrium carcinoma cell line. Three hundred cells were set into Petri dishes of 3.5 cm in diameter each. The treatment was carried out once, 24 hours following the explantation, then the colonies formed were counted after 9 to 12 days.

[4] = system: Ishikawa human endometrium carcinoma cell line; experiment: as above; type: cell-based
Method: as §2

PC3 [5] = experiment: In vitro inhibition of cell proliferation (Example 19); type: cell-based, human
Method: (§3) The procedure of treatment was as follows. After trypsinization the cells, 400,000 cells of MCF-7, MDA-MB-231 human mammary carcinoma, PC3 human prostate carcinoma or Ishikawa human endometrium tumour each were passed into Petri dishes of 10 cm in diameter. Starting from the day following transfer, the cells were treated with the substances to be tested in solution prepared with the nutrient medium during the exponential growth phase. The cultures were treated with 1 to 50 µM (calculated for the total volume of the culture) or MI-1544 GnRH antagonist, MI-1892 chicken GnRH antagonist or SJ-1004 GnRH antagonist analogues as well as synthetic lamprey GnRH-III hormone every two days and the cell count was determined on the 7th day.

Ishikawa [6] = system: Ishikawa
Method: as §3, with “antagonist analogues as well as synthetic lamprey GnRH-III hormone every two days and the cell count was determined” left out

MXT mouse mammary tumour = experiment: In vivo antitumour effect on mice bearing MXT mouse mammary tumour; parameters: species or system CBA/Ca mice
Method: The MXT mouse mammary carcinoma contains ER and PgR proteins; furthermore, it contains also GnRH receptors; therefore, this in vivo tumour model is suitable for studying both the direct and indirect effects. The treatment of mice bearing MXT mammary tumour was commenced on the day following transplantation. […] Table VI The animals were daily treated in s.c. route starting from the day following transplantation of MXT mouse mammary tumour. […] MI-1544: 75 µg/day/animal; MI-1892: 75 µg/day/animal.

[7] = system: PC3 human prostate carcinoma cell line; experiment: Inhibition of colony formation (dose-survival relation, Example 18); type: cell-based
Method: as §2

[8] = system: MDA-MB-231 human mammary carcinoma cell line; experiment: as above; type: cell-based
Method: as §2

PC3 [9] = experiment: Inhibition of colony formation by GnRH analogues (dose-survival, Example 48); type: cell-based, human; conditions: 50 µM
Method: as §1

MDA-MB-231 [10] = conditions: MDA-MB-231; 30 µM active substance; conjugate, treated once; listed as 8. P-GFLG-1004
Method: (§4) The procedure of treatment was as follows. After trypsinization the cells, 400,000 cells of MCF-7, MDA-MB-231 human mammary carcinoma, PC3 human prostate carcinoma or Ishikawa human endometrium tumour each were passed into Petri dishes of 10 cm in diameter. Starting from the day following transfer, the cells were treated with the substances to be tested in solution prepared with the nutrient medium during the exponential growth phase. […]

MCF-7 [11] = conditions: MCF-7; 30 µM active substance; conjugate, treated once; cell count on 7th day; listed as 8. P-GFLG-1004
Method: as §4

MDA-MB-231 [12] = experiment: Inhibition of colony formation by GnRH analogues (dose-survival, Example 48); type: cell-based, human; conditions: 50 µM
Method: as §1

[13] = 30 µM, peptide alone, two treatments on days 2 and 4
[14] = MXT mouse mammary tumour, Treatment weeks: 13, 1x75 µg daily s.c.
[15] = MXT mouse mammary tumour, Treatment weeks: 20, 1x75 µg daily s.c.
[16] = 30 µM active substance, conjugate, treated once

NCCCC[C@H](NC(=O)[C@H](CO)NC(=O)[C@H](Cc1c[nH]c2ccccc12)NC(=O)[C@H](Cc1c[nH]cn1)NC(=O)[C@@H]1CCC(=O)N1)C(=O)N[C@H]1CC(=O)NCCCC[C@@H](C(=O)N2CCC[C@H]2C(=O)NCC(N)=O)NC(=O)[C@H](Cc2c[nH]c3ccccc23)NC1=O [Lys^5, cyclo[Asp^6-Lys^8]-GnRH-III]
inhibitory effect compared with the control D-Trp^6-hGnRH (human tumour cell lines): exceeded the inhibitory effect of control | % Inhibition of the colony formation (MCF-7 [1]): 44% | % Inhibition of the colony formation (Ishikawa [2]): 13% | inhibition of colony formation ([3]; concentration not given): 44% | inhibition of colony formation ([4]; concentration not given): 13%

CC(=O)N[C@H](Cc1c[nH]c2ccccc12)C(=O)N[C@H](Cc1ccc(Cl)cc1)C(=O)N[C@H](Cc1c[nH]c2ccccc12)C(=O)N[C@@H](CO)C(=O)N[C@@H](Cc1ccc(O)cc1)C(=O)N[C@H](CCCCN)C(=O)N[C@@H](CC(C)C)C(=O)N[C@@H](CCCNC(=N)N)C(=O)N1CCC[C@H]1C(=O)N[C@H](C)C(N)=O [MI-1544, Ac-D-Trp^1,3,D-Cpa^2,D-Lys^6,D-Ala^10-hGnRH, reference compound] (Ac-[dW][dPhe(4-Cl)][dW]SY[dK]LRP[dA]-NH2)
inhibition of proliferation (PC3 [5]; [13]): 24% | inhibition of proliferation (Ishikawa [6]; [13]): 8% | Inhibition % (MXT mouse mammary tumour; [14]): 46% | Tumour volume as control (%) (MXT mouse mammary tumour; [14]): 54% | Inhibition % (MXT mouse mammary tumour; [15]): 46% | Tumour volume as control (%) (MXT mouse mammary tumour; [15]): 54% | Tumour volume (cm^3) (MXT mouse mammary tumour; day 9, 75 µg/day/animal s.c.): 0.44 cm^3 | Tumour volume as control (%) (MXT mouse mammary tumour; day 9, 75 µg/day/animal s.c.): 63% | Tumour volume (cm^3) (MXT mouse mammary tumour; day 11, 75 µg/day/animal s.c.): 1.03 cm^3 | Tumour volume as control (%) (MXT mouse mammary tumour; day 11, 75 µg/day/animal s.c.): 57% | Tumour volume (cm^3) (MXT mouse mammary tumour; day 13, 75 µg/day/animal s.c.): 1.74 cm^3 | Tumour volume as control (%) (MXT mouse mammary tumour; day 13, 75 µg/day/animal s.c.): 54% | Tumour volume (cm^3) (MXT mouse mammary tumour; day 17, 75 µg/day/animal s.c.): 2.63 cm^3 | Tumour volume as control (%) (MXT mouse mammary tumour; day 17, 75 µg/day/animal s.c.): 51% | Tumour volume (cm^3) (MXT mouse mammary tumour; day 18, 75 µg/day/animal s.c.): 3.94 cm^3 | Tumour volume as control (%) (MXT mouse mammary tumour; day 18, 75 µg/day/animal s.c.): 53% | Tumour volume (cm^3) (MXT mouse mammary tumour; day 20, 75 µg/day/animal s.c.): 5.02 cm^3 | Tumour volume as control (%) (MXT mouse mammary tumour; day 20, 75 µg/day/animal s.c.): 54% | Tumour volume (cm^3) (MXT mouse mammary tumour; day 24, 75 µg/day/animal s.c.): 6.08 cm^3 | Tumour volume as control (%) (MXT mouse mammary tumour; day 24, 75 µg/day/animal s.c.): 48% | Tumour volume (cm^3) (MXT mouse mammary tumour; day 26, 75 µg/day/animal s.c.): 8.42 cm^3 | Tumour volume as control (%) (MXT mouse mammary tumour; day 26, 75 µg/day/animal s.c.): 60% | % Inhibition of colony formation ([3]; 50 µM (active substance)): 45% | % Inhibition of colony formation ([7]; 50 µM): 20% | % Inhibition of colony formation ([8]; 50 µM): 20% | % Inhibition of colony formation ([4]; 50 µM): 5%

D-Phe^2,D-Trp^3,{D-Lys[n-poly(N-vinylpyrrolidone-co-maleic acid)-Gly-Phe-Leu-Gly]}^6,-GnRH [P-GFLG-1004]
% Inhibition of cell division (proliferation) (PC3 [5]; [16]): 35% | % Inhibition of cell division (proliferation) (Ishikawa [6]; [16]): 20% | % Inhibition of the colony formation (PC3 [9]): 31% | % Inhibition of colony formation ([3]; 10 µM (active substance)): 75% | % Inhibition of colony formation ([3]; 50 µM (active substance), listed as 8. P-GFLG-1004, 50 µM): 95% | % Inhibition of colony formation ([7]; 30 µM): 100% | % Inhibition of colony formation ([7]; 50 µM): 100% | % Inhibition of colony formation ([8]; 10 µM): 62% | % Inhibition of colony formation ([8]; 50 µM, listed as 8. P-GFLG-1004, 50 µM): 92% | % Inhibition of colony formation ([4]; 10 µM): 3% | % Inhibition of colony formation ([4]; 50 µM): 46% | % Inhibition of cell division (proliferation) (MDA-MB-231 [10]): 68% | % Inhibition of cell division (proliferation) (MCF-7 [11]): 63%

NCCCC[C@H](NC(=O)[C@H](Cc1c[nH]c2ccccc12)NC(=O)[C@H](CCC(=O)O)NC(=O)[C@H](Cc1c[nH]cn1)NC(=O)[C@H](CO)NC(=O)[C@H](Cc1c[nH]c2ccccc12)NC(=O)[C@H](Cc1c[nH]cn1)NC(=O)[C@@H]1CCC(=O)N1)C(=O)N1CCC[C@H]1C(=O)NCC(N)=O [8. Glu^6-GnRH-III, Glu^6-GnRH-III]
inhibitory effect compared with the control D-Trp^6-hGnRH (human tumour cell lines): exceeded the inhibitory effect of control | % Inhibition of the colony formation (PC3 [9]): 31% | % Inhibition of the colony formation (MDA-MB-231 [12]): 25% | % Inhibition of the colony formation (MCF-7 [1]): 44% | % Inhibition of the colony formation (Ishikawa [2]): 2%
